PubChem BioAssay (NCI)
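Growth conditions: 96-well plates. Treatment: test compound, 48 hours, 5 concentrations. Analysis: linear interpolation between bracketing concentrations; unreached endpoints set to highest concentration. At the TGI there is no net growth.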

Columns and labels:
Experiment in all cases: NCI-60 cell line screen, 48 h
[1] = tested on: SF-295 CNS
[2] = tested on: MDA-MB-231 breast
[3] = tested on: RPMI-8226 leukemia
[4] = tested on: DU-145 prostate
[5] = tested on: KM12 colon
[6] = tested on: RXF 393 renal
[7] = tested on: SNB-19 CNS
[8] = tested on: PC-3 prostate
[9] = tested on: NCI-H522 lung
[10] = tested on: UO-31 renal
[11] = tested on: OVCAR-5 ovarian
[12] = tested on: COLO 205 colon
[13] = tested on: MDA-N
[14] = tested on: SK-MEL-28 melanoma
[15] = tested on: HCC-2998 colon
[16] = tested on: CAKI-1 renal
[17] = tested on: SK-MEL-5 melanoma
[18] = tested on: SF-539 CNS
[19] = tested on: SK-MEL-2 melanoma
[20] = tested on: ACHN renal

Compound: CN1c2c(nc(N)[nH]c2=O)NCC1CCNc1ccc(C(=O)NC(CCC(=O)O)C(=O)O)cc1 (stereo not given)
- TGI [1]: 2260 µM
- TGI [2]: 3050 µM
- TGI [3]: 2930 µM
- TGI [4]: 2660 µM
- TGI [5]: 2220 µM
- TGI [6]: 2490 µM
- TGI [7]: 3250 µM
- TGI [8]: 1750 µM
- TGI [9]: 2470 µM
- TGI [10]: 2590 µM
- TGI [11]: 2880 µM
- TGI [12]: 2750 µM
- TGI [13]: 430 µM
- TGI [14]: 2290 µM
- TGI [15]: 2080 µM
- TGI [16]: 1290 µM
- TGI [17]: 2470 µM
- TGI [18]: 2190 µM
- TGI [19]: 3050 µM
- TGI [20]: 2000 µM

Compound: CCO[C@H]1O[C@@H]2OC3(C)CCC4[C@H](C)CCC([C@H]1C)[C@]42OO3 (stereo not given in full)
- TGI [1]: > 100 µM
- TGI [2]: > 100 µM
- TGI [3]: > 100 µM
- TGI [4]: > 100 µM
- TGI [5]: > 100 µM
- TGI [6]: > 100 µM
- TGI [7]: > 100 µM
- TGI [8]: > 100 µM
- TGI [9]: > 100 µM
- TGI [10]: > 100 µM
- TGI [11]: > 68.6 µM
- TGI [12]: 25.5 µM
- TGI [13]: > 100 µM
- TGI [14]: > 100 µM
- TGI [15]: > 100 µM
- TGI [16]: > 100 µM
- TGI [17]: > 100 µM
- TGI [18]: > 100 µM
- TGI [19]: > 100 µM
- TGI [20]: > 100 µM

Compound: COc1ccccc1/C=N/Nc1nnc2c3ccccc3c3ncccc3c2n1
- TGI [1]: 31.8 µM
- TGI [2]: > 100 µM
- TGI [3]: > 100 µM
- TGI [4]: > 100 µM
- TGI [5]: > 100 µM
- TGI [6]: 55.6 µM
- TGI [7]: > 100 µM
- TGI [8]: > 100 µM
- TGI [9]: > 100 µM
- TGI [10]: > 100 µM
- TGI [11]: > 100 µM
- TGI [12]: > 100 µM
- TGI [13]: > 100 µM
- TGI [14]: > 100 µM
- TGI [15]: > 100 µM
- TGI [16]: > 100 µM
- TGI [17]: > 100 µM
- TGI [18]: 76 µM
- TGI [19]: > 100 µM
- TGI [20]: > 100 µM
